Laboratory results published in the supplement of paper PMC8253809.

Key:
[1] = system: DIPGX29 (H3.3 K27M diffuse intrinsic pontine glioma line); assay: EC50 (inflection of fitted growth-inhibition curve) (log10 M)
Summary of the method: (§1)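 EC50 and maximal response (yFin) were derived from the lowest-AICc fit, either three- or four-parameter log-logistic. The data were pooled CellTiter-Glo luminescence values, log2-transformed and normalised per plate to % activity between negative (solvent) and positive controls. Patient-derived pHGG/DIPG cell lines and astrocyte controls on 1% Geltrex-coated 384-well plates received a 10-point threefold dilution series (mean top concentration 35 μM) by pin tool, in triplicate, for 7 days (iAstro 3 days) at 37 °C, 5% CO2.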

[2] = system: DIPGX37 (H3.3 K27M diffuse intrinsic pontine glioma line); assay: as above
Summary of the method: as §1

[3] = system: HGGX6 (H3.3 G34R paediatric high-grade glioma line); assay: as above
Summary of the method: as §1

[4] = system: DIPGX29; assay: maximal growth inhibition (yFin) relative to DMSO / staurosporine; higher = more efficacious
Summary of the method: as §1

[5] = system: DIPGX37; assay: as above
Summary of the method: as §1

[6] = system: HGGX6; assay: as above
Summary of the method: as §1

[7] = system: DIPGX29; assay: area under dose-response curve of % growth inhibition (log2 RLU vs DMSO / staurosporine), 1e-11 to 1e-4 M (% x log10 M); higher = more growth inhibition
Summary of the method: (§2)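 Cells were exposed in triplicate for 7 days (iAstro: 3 days) at 37 °C, 5% CO2 to a 10-point series of threefold dilutions with a mean top concentration of 35 μM. These were patient-derived pHGG/DIPG lines plus astrocytes, grown on 384-well plates coated with 1% Geltrex. Readout was CellTiter-Glo luminescence, log2-transformed and set per plate to % activity between solvent and positive controls, from which area under the curve was derived by trapezoid rule on a log-logistic fit or, failing that, a smoothing spline.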

[8] = system: DIPGX37; assay: as above
Summary of the method: as §2

[9] = system: HGGX39 (paediatric high-grade glioma line); assay: as above
Summary of the method: as §2

[10] = system: HGGX6; assay: as above
Summary of the method: as §2

[11] = system: HGGX39; assay: EC50 (inflection of fitted growth-inhibition curve) (log10 M)
Summary of the method: as §1

[12] = system: HGGX39; assay: maximal growth inhibition (yFin) relative to DMSO / staurosporine; higher = more efficacious
Summary of the method: as §1

CC[C@H](C)n1cc(C)c2c(C(=O)NCc3c(C)cc(C)[nH]c3=O)cc(-c3ccc(N4CCNCC4)nc3)cc21 [GSK126]
EC50 (log10 M) [1]: -4.87
EC50 (log10 M) [2]: -4.88
EC50 (log10 M) [3]: -4.83
maximal growth inhibition [4]: 76.4%
maximal growth inhibition [5]: 76.7%
maximal growth inhibition [6]: 74.4%
area under dose-response curve [7]: 66.1
area under dose-response curve [8]: 74.3
area under dose-response curve [9]: 13.1
area under dose-response curve [10]: 61.2

Cc1cc(C)c(S(=O)(=O)N(Cc2ccc(-c3cccc(S(C)(=O)=O)c3)cc2)Cc2ccc(C(F)(F)F)o2)c(C)c1 [GSK-2033]
EC50 (log10 M) [1]: -5.05
maximal growth inhibition [4]: 87.3%
area under dose-response curve [7]: 89
area under dose-response curve [8]: 22.5
area under dose-response curve [9]: 0
area under dose-response curve [10]: 30.1

COc1cc2c(cc1-c1c(C)noc1C)ncc1[nH]c(=O)n([C@H](C)c3ccccn3)c12 [I-BET151]
EC50 (log10 M) [1]: -5.05
EC50 (log10 M) [2]: -5.65
EC50 (log10 M) [11]: -5.03
maximal growth inhibition [4]: 21.8%
maximal growth inhibition [5]: 25.8%
maximal growth inhibition [12]: 45%
area under dose-response curve [7]: 31.6
area under dose-response curve [8]: 43.5
area under dose-response curve [9]: 47.5
area under dose-response curve [10]: 37.1

CC(=O)N1c2ccc(-c3ccc(C(=O)O)cc3)cc2[C@H](Nc2ccc(Cl)cc2)C[C@@H]1C [I-BET726]
EC50 (log10 M) [1]: -5.48
EC50 (log10 M) [2]: -6.37
EC50 (log10 M) [11]: -5.73
maximal growth inhibition [4]: 30%
maximal growth inhibition [5]: 37.1%
maximal growth inhibition [12]: 37.7%
area under dose-response curve [7]: 43
area under dose-response curve [8]: 79.4
area under dose-response curve [9]: 55.9
area under dose-response curve [10]: 44.5

CC(C)NC[C@@H](C(=O)N1CCN(c2ncnc3c2[C@H](C)C[C@H]3O)CC1)c1ccc(Cl)cc1 [IPATASERTIB]
EC50 (log10 M) [1]: -5.18
EC50 (log10 M) [2]: -5.27
EC50 (log10 M) [3]: -5.67
maximal growth inhibition [4]: 50.3%
maximal growth inhibition [5]: 21.5%
maximal growth inhibition [6]: 31.8%
area under dose-response curve [7]: 64.7
area under dose-response curve [8]: 25.8
area under dose-response curve [9]: 11.9
area under dose-response curve [10]: 49

Clc1ccc(NN=C(c2ccccc2)c2ccccn2)nc1 [JIB-04]
EC50 (log10 M) [1]: -5.13
EC50 (log10 M) [11]: -5.02
EC50 (log10 M) [3]: -5.07
maximal growth inhibition [4]: 47.2%
maximal growth inhibition [12]: 34.3%
maximal growth inhibition [6]: 50.7%
area under dose-response curve [7]: 63.6
area under dose-response curve [8]: 25.7
area under dose-response curve [9]: 34.4
area under dose-response curve [10]: 61.4

S=c1[nH]cnc2nc[nH]c12 [MERCAPTOPURINE]
EC50 (log10 M) [1]: -6.35
EC50 (log10 M) [3]: -5.3
maximal growth inhibition [4]: 20.5%
maximal growth inhibition [6]: 21.1%
area under dose-response curve [7]: 44.1
area under dose-response curve [8]: 38
area under dose-response curve [9]: 28
area under dose-response curve [10]: 25.5

CN(C)CCCNC(=O)c1ccc(-c2cc(O)c3ncccc3c2)cc1 [ML324]
EC50 (log10 M) [1]: -4.82
EC50 (log10 M) [3]: -4.67
maximal growth inhibition [4]: 43.7%
maximal growth inhibition [6]: 44.1%
area under dose-response curve [7]: 35.8
area under dose-response curve [8]: 4.39
area under dose-response curve [9]: 14.9
area under dose-response curve [10]: 29.4

CCC(CC)(NC(=O)C(C)C)C(=O)N[C@@H](CCCN=C(N)N)C(=O)NC1(C(=O)NC(c2ccc(F)cc2)c2ccc(F)cc2)CCCC1 [MM-102]
EC50 (log10 M) [1]: -5.17
EC50 (log10 M) [3]: -5.03
maximal growth inhibition [4]: 33.9%
maximal growth inhibition [6]: 63.5%
area under dose-response curve [7]: 39.7
area under dose-response curve [8]: 6.41
area under dose-response curve [9]: 12.2
area under dose-response curve [10]: 65.5

O=C(O)C[C@H](O)C[C@H](O)/C=C/c1c(C2CC2)nc2ccccc2c1-c1ccc(F)cc1 [PITAVASTATIN]
EC50 (log10 M) [1]: -5.04
EC50 (log10 M) [11]: -6.26
EC50 (log10 M) [3]: -5.36
maximal growth inhibition [4]: 49.2%
maximal growth inhibition [12]: 92.9%
maximal growth inhibition [6]: 66.4%
area under dose-response curve [7]: 75.6
area under dose-response curve [8]: 121
area under dose-response curve [9]: 215
area under dose-response curve [10]: 95.1

Cn1cnc2c(F)c(Nc3ccc(Br)cc3Cl)c(C(=O)NOCCO)cc21 [SELUMETINIB]
EC50 (log10 M) [1]: -4.87
EC50 (log10 M) [2]: -4.93
maximal growth inhibition [4]: 34.5%
maximal growth inhibition [5]: 83.2%
area under dose-response curve [7]: 52.5
area under dose-response curve [8]: 96
area under dose-response curve [9]: 14.2
area under dose-response curve [10]: 26.8

Nc1ncnc2c1ncn2[C@@H]1O[C@H](C[C@@H](N)CC[C@H](N)C(=O)O)[C@@H](O)[C@H]1O [SINEFUNGIN]
EC50 (log10 M) [1]: -5.35
maximal growth inhibition [4]: 21.5%
area under dose-response curve [7]: 29
area under dose-response curve [8]: 0
area under dose-response curve [9]: 0
area under dose-response curve [10]: 4.01

Nc1nc2[nH]cnc2c(=S)[nH]1 [THIOGUANINE]
EC50 (log10 M) [1]: -5.83
EC50 (log10 M) [2]: -5.44
EC50 (log10 M) [11]: -5.68
maximal growth inhibition [4]: 35.6%
maximal growth inhibition [5]: 60.4%
maximal growth inhibition [12]: 22.1%
area under dose-response curve [7]: 59.5
area under dose-response curve [8]: 89.3
area under dose-response curve [9]: 33.7
area under dose-response curve [10]: 21.6

CCC(COC(=O)c1cc(OC)c(OC)c(OC)c1)(c1ccccc1)N(C)C (configuration not stated) [TRIMEBUTINE]
EC50 (log10 M) [2]: -5.38
EC50 (log10 M) [11]: -5.08
EC50 (log10 M) [3]: -4.87
maximal growth inhibition [5]: 25.6%
maximal growth inhibition [12]: 55.5%
maximal growth inhibition [6]: 22.6%
area under dose-response curve [7]: 28.3
area under dose-response curve [8]: 35.6
area under dose-response curve [9]: 60.1
area under dose-response curve [10]: 19.8

C=C[C@]1(C)C[C@@H](OC(=O)CSC(C)(C)CNC(=O)[C@H](N)C(C)C)[C@]2(C)[C@H](C)CC[C@]3(CCC(=O)[C@H]32)[C@@H](C)[C@@H]1O [VALNEMULIN]
EC50 (log10 M) [1]: -4.85
EC50 (log10 M) [2]: -4.79
EC50 (log10 M) [11]: -5.56
maximal growth inhibition [4]: 55.5%
maximal growth inhibition [5]: 30.2%
maximal growth inhibition [12]: 30.5%
area under dose-response curve [7]: 59.9
area under dose-response curve [8]: 24
area under dose-response curve [9]: 42.1
area under dose-response curve [10]: 12

CC[C@]1(O)C[C@@H]2CN(CCc3c([nH]c4ccccc34)[C@@](C(=O)OC)(c3cc4c(cc3OC)N(C)[C@H]3[C@@](O)(C(=O)OC)[C@H](OC(C)=O)[C@]5(CC)C=CCN6CC[C@]43[C@@H]65)C2)C1 [VINBLASTINE]
EC50 (log10 M) [1]: -5.63
EC50 (log10 M) [3]: -5.46
maximal growth inhibition [4]: 50.4%
maximal growth inhibition [6]: 23.5%
area under dose-response curve [7]: 88.8
area under dose-response curve [8]: 58.2
area under dose-response curve [9]: 53.5
area under dose-response curve [10]: 58.8
